# Values quoted from earlier work as cited in patent US20240285702A1, “Compositions comprising a cannabinoid and uses thereof” (Cannabotech Ltd., priority 2021, published 2024).
smiles,measurement,value
"C=C(C)[C@@H]1CCC(C)=C[C@H]1c1c(O)cc(CCCCC)cc1O [CBD, 2-[(1R,6R)-6-isopropenyl-3-methylcyclohex-2-en-1-yl]-5-pentylbenzene-1,3-diol]",Log P,5.8
same,water solubility,0.7 µg/mL
